Entries after “also recorded” stand apart in the source; their conditions may differ.

Results on 1 substance are retold here after patent US12409237B1, “Methods and models for assessing efficacy of immunotherapies” (The Jackson Laboratory, priority 2016, dated 2025).

This experiment relates to human BL0293 tumor cells (bladder cancer cells). Briefly: Tumor growth of BL0293 patient-derived xenograft in NSG-Quad mice engrafted with human CD34+ hematopoietic stem cells. It is filed as in vivo, mouse. As to conditions: NSG-Quad mice with human CD34+ HSC and BL0293 xenografts; intravenous 10 mg/kg on day 0, then 5 mg/kg on days 5, 10 and 15; versus vehicle; tumors 60-100 mm^3 at grouping. On the procedure:
NSG-Quad mice were irradiated with 50 cGy whole body radiation. NSG-SGM3 mice were irradiated with 50 cGy whole body radiation and NSG mice were irradiated with 100 cGy whole body radiation as controls. Each mouse received about 100,000 human CD34^+ hematopoietic stem cells from the same donor by injection. Blood cells obtained by retro-orbital bleeding at 10 weeks post-engraftment were assessed by flow cytometry for mouse CD45, human CD45, human CD20, human CD3, human CD33, human CD14, and human CD56 (FIG. 1A-F). Live cells were gated using LIVE/DEAD® (ThermFisher Scientific).
BR1126, MDA-MB-231, TM1149, and BL0293 tumor cells were separately implanted subcutaneously into NSG-Quad and NSG-SGM3 mice at 7-12 weeks post-CD34^+-cell engraftment (see Example 1). Tumor sizes were measured with calipers.
NSG-Quad mice xenografted with human BL0293 tumor cells (bladder cancer cells) were grouped when tumors reached 60-100 mm^3, and mice were then administered intravenous pembrolizumab at 10 mg/kg on day 0 followed by 5 mg/kg on days 5, 10, and 15. Tumor sizes were measured by calipers.
FIG. 5 is a graph depicting tumor volumes for NSG-Quad mice that have human CD34^+ hematopoietic stem cell xenografts and BL0293 patient-derived xenografts and receiving either pembrolizumab (Keytruda®) or vehicle. Each data point corresponds to a single mouse at a specific time-point. […]
On the technique in general: A xenograft is tissue or cells of one species grown in another, often human tumour cells in immunodeficient mice.

In the case of pembrolizumab, the “tumor growth (tumor volume measured by calipers)” value is on record as “reduced tumor growth rates; also recorded: slower tumor growth on average”.
